Assay results taken from ChEMBL document CHEMBL3286266, “Development of novel benzomorpholine class of diacylglycerol acyltransferase I inhibitors” (ACS Med Chem Lett, 2014).
Values after ≈ are worked out from the molar mass of the structure shown.

Legend:
[1] = Cmax in rat; assay type: ADME, organism-based; settings: in vivo
[2] = Total AUC in rat; assay type: ADME, organism-based; set-up: time AUCmax; settings: in vivo
Mus musculus [3] = experiment: Reduction in triglycerides level in mouse at 3 mg/kg, po after 2 hrs by postprandial triglyceride assay; assay type: functional
[4] = target: T1, Diacylglycerol O-acyltransferase 1 (Mus musculus, UniProt Q9Z2A7); experiment: Inhibition of mouse DGAT1 expressed in Sf9 insect cells using 1,2-dioleoyl-sn-glycerol and [14C]-palmitoyl-CoA substrate by scintillation counting analysis
T1 sequence (Q9Z2A7 whole entry): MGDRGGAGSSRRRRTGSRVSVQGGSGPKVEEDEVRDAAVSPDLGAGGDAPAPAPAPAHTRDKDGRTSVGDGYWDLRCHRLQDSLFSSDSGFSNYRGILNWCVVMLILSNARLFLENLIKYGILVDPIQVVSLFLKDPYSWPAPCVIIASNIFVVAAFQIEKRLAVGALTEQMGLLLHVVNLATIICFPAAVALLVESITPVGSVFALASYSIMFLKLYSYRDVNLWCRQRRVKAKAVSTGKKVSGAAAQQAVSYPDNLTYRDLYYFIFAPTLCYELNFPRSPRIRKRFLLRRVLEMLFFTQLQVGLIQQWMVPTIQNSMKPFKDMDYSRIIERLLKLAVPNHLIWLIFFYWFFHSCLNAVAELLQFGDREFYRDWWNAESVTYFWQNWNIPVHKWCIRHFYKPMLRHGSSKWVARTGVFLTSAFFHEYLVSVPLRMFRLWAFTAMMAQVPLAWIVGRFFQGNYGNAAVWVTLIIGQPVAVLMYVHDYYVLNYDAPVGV

[5] = Tmax in rat; assay type: ADME, organism-based; settings: in vivo
[6] = Solubility in plasma (unknown origin) at pH 7; assay type: ADME, cell-free
[7] = Permeability in human Caco2 cells; assay type: ADME, cell-based; settings: Caco-2, read-out: permeability
Mus musculus [8] = experiment: Induction of weight loss in diet-induced obese C57BL/6J mouse assessed as decrease in body weight at 10 mg/kg, po qd measured during 11 day chronic study; assay type: functional; set-up: scale not given: the % may be the effect or the level left
[9] = target: T2, Diacylglycerol O-acyltransferase 2 (Homo sapiens, UniProt Q96PD7); experiment: Inhibition of human DGAT2 expressed in Sf9 insect cells using 1,2-dioleoyl-sn-glycerol and [14C]-palmitoyl-CoA substrate by scintillation counting analysis
T2 sequence (Q96PD7 whole entry): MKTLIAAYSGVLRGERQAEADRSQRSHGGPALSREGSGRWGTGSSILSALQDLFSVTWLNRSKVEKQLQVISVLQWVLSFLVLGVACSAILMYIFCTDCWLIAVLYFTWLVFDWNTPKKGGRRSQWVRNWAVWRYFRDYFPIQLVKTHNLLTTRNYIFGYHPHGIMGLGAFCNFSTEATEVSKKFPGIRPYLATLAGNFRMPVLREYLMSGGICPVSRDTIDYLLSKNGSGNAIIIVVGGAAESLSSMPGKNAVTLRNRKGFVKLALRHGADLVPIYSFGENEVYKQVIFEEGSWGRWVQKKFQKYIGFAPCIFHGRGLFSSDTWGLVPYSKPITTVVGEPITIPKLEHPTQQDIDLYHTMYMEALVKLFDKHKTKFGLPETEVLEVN

Cytochrome P450 2C9 = Cytochrome P450 2C9 (Homo sapiens, UniProt P11712); experiment: Inhibition of CYP2C9 (unknown origin)
Chain of Cytochrome P450 2C9 (P11712 whole entry): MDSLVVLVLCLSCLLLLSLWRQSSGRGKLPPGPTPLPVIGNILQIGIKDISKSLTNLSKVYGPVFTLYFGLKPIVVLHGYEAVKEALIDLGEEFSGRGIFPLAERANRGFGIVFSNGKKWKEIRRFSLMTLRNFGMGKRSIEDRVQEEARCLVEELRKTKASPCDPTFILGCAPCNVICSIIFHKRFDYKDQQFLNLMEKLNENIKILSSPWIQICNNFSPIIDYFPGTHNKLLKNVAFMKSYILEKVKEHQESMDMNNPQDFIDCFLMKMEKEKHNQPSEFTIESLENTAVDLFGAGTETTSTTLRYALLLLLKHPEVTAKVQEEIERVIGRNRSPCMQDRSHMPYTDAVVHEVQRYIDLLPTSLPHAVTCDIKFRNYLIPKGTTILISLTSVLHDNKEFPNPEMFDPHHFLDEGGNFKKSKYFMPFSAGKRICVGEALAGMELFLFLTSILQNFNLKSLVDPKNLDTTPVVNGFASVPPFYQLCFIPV

[10] = target: T3, Sterol O-acyltransferase 1 (Homo sapiens, UniProt P35610); experiment: Inhibition of human ACAT1 expressed in Sf9 insect cells using [14C]-oleoyl-CoA by scintillation counting analysis
T3 sequence (P35610 whole entry): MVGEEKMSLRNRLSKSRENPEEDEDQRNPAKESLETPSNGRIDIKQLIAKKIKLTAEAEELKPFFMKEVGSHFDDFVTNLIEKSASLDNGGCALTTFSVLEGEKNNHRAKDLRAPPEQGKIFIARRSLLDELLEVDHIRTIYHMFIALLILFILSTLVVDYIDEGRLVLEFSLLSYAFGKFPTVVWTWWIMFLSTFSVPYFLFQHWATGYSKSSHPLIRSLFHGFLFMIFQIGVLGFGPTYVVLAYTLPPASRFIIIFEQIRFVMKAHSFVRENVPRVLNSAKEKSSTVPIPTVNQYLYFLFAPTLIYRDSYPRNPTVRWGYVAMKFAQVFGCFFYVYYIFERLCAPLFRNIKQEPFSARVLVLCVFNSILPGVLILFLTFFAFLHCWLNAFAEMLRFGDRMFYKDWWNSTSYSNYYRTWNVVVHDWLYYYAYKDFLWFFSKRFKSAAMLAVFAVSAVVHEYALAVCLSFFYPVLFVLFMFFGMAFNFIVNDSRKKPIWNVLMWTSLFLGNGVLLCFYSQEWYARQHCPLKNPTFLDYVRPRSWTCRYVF

[11] = AUC in mouse at 10 mg/kg; assay type: ADME, organism-based; set-up: dose 10 mg/kg; settings: plasma
[12] = target: T4, Sterol O-acyltransferase 2 (Homo sapiens, UniProt O75908); experiment: Inhibition of human ACAT2 expressed in Sf9 insect cells using [14C]-oleoyl-CoA by scintillation counting analysis
T4 sequence (O75908 whole entry): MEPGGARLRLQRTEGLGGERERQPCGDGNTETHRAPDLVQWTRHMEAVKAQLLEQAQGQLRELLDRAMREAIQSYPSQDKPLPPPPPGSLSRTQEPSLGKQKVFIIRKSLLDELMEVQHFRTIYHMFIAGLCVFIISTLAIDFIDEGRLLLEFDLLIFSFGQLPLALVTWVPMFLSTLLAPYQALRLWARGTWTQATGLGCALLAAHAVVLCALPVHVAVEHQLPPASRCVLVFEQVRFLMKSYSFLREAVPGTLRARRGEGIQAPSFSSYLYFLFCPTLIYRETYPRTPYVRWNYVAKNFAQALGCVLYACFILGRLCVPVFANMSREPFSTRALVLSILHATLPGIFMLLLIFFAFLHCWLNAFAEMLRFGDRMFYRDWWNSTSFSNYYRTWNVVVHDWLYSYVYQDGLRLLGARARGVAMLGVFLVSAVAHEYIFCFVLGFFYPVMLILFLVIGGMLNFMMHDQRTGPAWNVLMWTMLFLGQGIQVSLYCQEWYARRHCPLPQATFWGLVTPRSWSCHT

SMILES	Cmax [1]	AUC [2]	inhibition in vivo at 3 mg/kg (Mus musculus [3])	IC50 [4]	Tmax [5]	solubility [6]	Papp [7]	Activity (Mus musculus [8])	IC50 [9]	IC50 (Cytochrome P450 2C9)	IC50 [10]	AUC [11]	IC50 [12]
CCCCCCCNC(=O)N1CCOc2cc(-c3ccc([C@H]4CC[C@H](CC(=O)O)CC4)cc3)ccc21	65 nM	0.195 µM·h	48%	0.027 µM	2 h	5 µM (≈ 2.46 µg/mL)	3.5 ×10⁻⁶ cm/s						
O=C(Nc1ccc(OC(F)(F)F)cc1)Nc1ccc(-c2ccc(C(=O)[C@@H]3CCC[C@H]3C(=O)O)cc2)cc1F								2%					
C[C@@H]1CN(C(=O)Nc2ccccc2)c2ccc(-c3ccc([C@H]4CC[C@H](CC(=O)O)CC4)cc3)cc2O1				0.018 µM					10 µM	14 µM	10 µM	34 µM·h	2 µM
